Measurements published in US9156872B2, “2′-azido substituted nucleoside derivatives and methods of use thereof for the treatment of viral diseases” (priority 2011, dated 2015).

What follows are compounds tested on HCV replicon cells (assay: Cell-based HCV replicon assay (replicon RNA by Taqman real time PCR)). Details: HCV replicon 1b, cells harvested on day 3; read-out: 1b EC50.
Work on `C[C@@]1(N=[N+]=[N-])[C@@H]2OP(=O)(OC3CCCC3)OC[C@H]2O[C@H]1n1ccc(=O)[nH]c1=O` (some centres unmarked) [Compound 88] yielded an EC50 of 400 nM.

Same assay, conditions: Hepatitis C virus, 72 h, HCV replicon 1b, cells harvested on day 3; read-out: 1b EC50
Compound `C[C@@]1(N=[N+]=[N-])[C@H](O)[C@@H](CO)O[C@H]1n1cnc2c(=O)[nH]c(N)nc21` [Compound 17] has an EC50 of over 100000 nM. `C[C@@]1(N=[N+]=[N-])[C@H](O)[C@@H](CO)O[C@H]1n1ccc(N)nc1=O` [Compound 1] was tested, and the EC50 was 26000 nM. With `C[C@@]1(N=[N+]=[N-])[C@@H]2OP(=O)(OC3CCC3)OC[C@H]2O[C@H]1n1ccc(=O)[nH]c1=O` (some centres unmarked) [Compound 83] the EC50 was 63000 nM.

Same assay, conditions: Hepatitis C virus, 72 h, read-out: 1b EC50
Work on `CCOc1nc(N)nc2c1ncn2[C@@H]1O[C@H](COP(=O)(N[C@@H](C)C(=O)OC2CCCCC2)Oc2ccccc2)[C@@H](O)[C@@]1(C)N=[N+]=[N-]` (some centres unmarked) [Compound 145] yielded an EC50 of 200 nM. `CCCCOC(=O)[C@H](C)NP(=O)(OC[C@H]1O[C@@H](n2ccc(=O)[nH]c2=O)[C@](C)(N=[N+]=[N-])[C@@H]1O)Oc1ccccc1` (some centres unmarked) [Compound 26] showed an EC50 of 600 nM. Compound `CCCCOC(=O)[C@H](C)NP(=O)(OC[C@H]1O[C@@H](n2cnc3c(OCC)nc(N)nc32)[C@](C)(N=[N+]=[N-])[C@@H]1O)Oc1cccc2ccccc12` (single isomer, unassigned) [Compound 171] has an EC50 of 500 nM. With `CCOc1nc(N)nc2c1ncn2[C@@H]1O[C@H](COP(=O)(N[C@@H](C)C(=O)OC2CCCCC2)Oc2ccc(Cl)cc2)[C@@H](O)[C@@]1(C)N=[N+]=[N-]` (some centres unmarked) [Compound 307] the EC50 was 33000 nM. In the case of `COC(=O)[C@H](C)NP(=O)(OC[C@H]1O[C@@H](n2cnc3c(OC)nc(N)nc32)[C@](C)(N=[N+]=[N-])[C@@H]1O)Oc1ccc(Cl)c(Cl)c1` (some centres unmarked) [Compound 248], the EC50 is reported as 1000 nM. `CCOc1nc(N)nc2c1ncn2[C@@H]1O[C@H](COP(=O)(N[C@@H](C)C(=O)OC)Oc2ccc(F)cc2)[C@@H](O)[C@@]1(C)N=[N+]=[N-]` (some centres unmarked) [Compound 35] showed an EC50 of 1600 nM. In the case of `COc1nc(N)nc2c1ncn2[C@@H]1O[C@H](COP(=O)(N[C@@H](C)C(=O)OC2CCCCC2)Oc2ccc(Cl)cc2)[C@@H](O)[C@@]1(C)N=[N+]=[N-]` (some centres unmarked) [Compound 80], the EC50 is reported as 2600 nM. `COc1nc(N)nc2c1ncn2[C@@H]1O[C@H](COP(=O)(N[C@@H](C)C(=O)OC(C)C)Oc2ccc(F)cc2)[C@@H](O)[C@@]1(C)N=[N+]=[N-]` (some centres unmarked) [Compound 243] showed an EC50 of 1400 nM. `CCCCOC(=O)[C@H](C)NP(=O)(OC[C@H]1O[C@@H](n2ccc(N)nc2=O)[C@](C)(N=[N+]=[N-])[C@@H]1O)Oc1ccccc1` (some centres unmarked) [Compound 31] was tested, and the EC50 was 4900 nM. In the case of `CCOC(=O)[C@H](C)NP(=O)(OC[C@H]1O[C@@H](n2ccc(N)nc2=O)[C@](C)(N=[N+]=[N-])[C@@H]1O)Oc1ccccc1Cl` (some centres unmarked) [Compound 183], the EC50 is reported as 3000 nM. With `CCCC(CCC)COC(=O)[C@H](C)NP(=O)(OC[C@H]1O[C@@H](n2ccc(=O)[nH]c2=O)[C@](C)(N=[N+]=[N-])[C@@H]1O)Oc1ccccc1` (some centres unmarked) [Compound 328] the EC50 was 2100 nM. For `CCOC(=O)[C@H](C)NP(=O)(OC[C@H]1O[C@@H](n2cnc3c(OC)nc(N)nc32)[C@](C)(N=[N+]=[N-])C1O)Oc1ccccc1` (single isomer, unassigned) [Compound 251], the EC50 was 400 nM. With `COc1nc(N)nc2c1ncn2[C@@H]1O[C@H](COP(=O)(N[C@@H](C)C(=O)OC(C)C)Oc2ccc(Cl)c(Cl)c2)[C@@H](O)[C@@]1(C)N=[N+]=[N-]` (single isomer, unassigned) [Compound 282] the EC50 was 5000 nM. With `COC(=O)[C@H](C)NP(=O)(OC[C@H]1O[C@@H](n2cnc3c(NC4CC4)nc(N)nc32)[C@](C)(N=[N+]=[N-])[C@@H]1O)Oc1ccccc1` (some centres unmarked) [Compound 386] the EC50 was 5300 nM. With `COC(=O)[C@H](C)NP(=O)(OC[C@H]1O[C@@H](n2ccc(N)nc2=O)[C@](C)(N=[N+]=[N-])[C@@H]1O)Oc1ccccc1Cl` (some centres unmarked) [Compound 93] the EC50 was 12000 nM. `CCOc1nc(N)nc2c1ncn2[C@@H]1O[C@H](COP(=O)(N[C@@H](C)C(=O)OCC(C)(C)C)Oc2ccccc2Cl)[C@@H](O)[C@@]1(C)N=[N+]=[N-]` (some centres unmarked) [Compound 357] showed an EC50 of 100000 nM. `CCOc1nc(N)nc2c1ncn2[C@@H]1O[C@H](COP(=O)(N[C@@H](C)C(=O)OC2CCCCC2)Oc2ccc(F)cc2)[C@@H](O)[C@@]1(C)N=[N+]=[N-]` (some centres unmarked) [Compound 64] gave an EC50 of 400 nM. With `CCCCOC(=O)[C@H](C)NP(=O)(OC[C@H]1O[C@@H](n2cnc3c(OCC)nc(N)nc32)[C@](C)(N=[N+]=[N-])[C@@H]1O)Oc1ccccc1` (some centres unmarked) [Compound 27] the EC50 was 100 nM. In the case of `CC(C)OC(=O)[C@H](C)NP(=O)(OC[C@H]1O[C@@H](n2ccc(N)nc2=O)[C@](C)(N=[N+]=[N-])[C@@H]1O)Oc1ccc(Cl)c(Cl)c1` (some centres unmarked) [Compound 195], the EC50 is reported as 20 nM. Work on `COc1nc(N)nc2c1ncn2[C@@H]1O[C@H](COP(=O)(N[C@@H](C)C(=O)OC2CCCCC2)Oc2ccc(Cl)cc2)[C@@H](O)[C@@]1(C)N=[N+]=[N-]` (single isomer, unassigned) [Compound 272] yielded an EC50 of 3700 nM. For `CCCCOC(=O)[C@H](C)NP(=O)(OC[C@H]1O[C@@H](n2cnc3c(OC)nc(N)nc32)[C@](C)(N=[N+]=[N-])C1O)Oc1cccc2ccccc12` (single isomer, unassigned) [Compound 297], the EC50 was 100 nM. With `COC(=O)[C@H](C)NP(=O)(OC[C@H]1O[C@@H](n2cnc3c(OC)nc(N)nc32)[C@](C)(N=[N+]=[N-])[C@@H]1O)Oc1ccc(F)cc1` (some centres unmarked) [Compound 242] the EC50 was 2600 nM. For `C[C@H](NP(=O)(OC[C@H]1O[C@@H](n2ccc(=O)[nH]c2=O)[C@](C)(N=[N+]=[N-])[C@@H]1O)Oc1ccc2c(c1)OCO2)C(=O)OCc1ccccc1` (some centres unmarked) [Compound 305], the EC50 was 1200 nM. `CCOc1nc(N)nc2c1ncn2[C@@H]1O[C@H](COP(=O)(N[C@@H](C)C(=O)OC2CCCCC2)Oc2ccc(Cl)cc2)[C@@H](O)[C@@]1(C)N=[N+]=[N-]` (single isomer, unassigned) [Compound 313] showed an EC50 of 660 nM. With `CC(C)OC(=O)[C@H](C)NP(=O)(OC[C@H]1O[C@@H](n2ccc(=O)[nH]c2=O)[C@](C)(N=[N+]=[N-])[C@@H]1O)Oc1ccc(Cl)c(Cl)c1` (some centres unmarked) [Compound 92] the EC50 was 7600 nM.

Same assay, conditions: read-out: 1b EC50
`C[C@H](NP(=O)(OC[C@H]1O[C@@H](n2ccc(N)nc2=O)[C@](C)(N=[N+]=[N-])[C@@H]1O)Oc1ccccc1Cl)C(=O)OCC(C)(C)C` (single isomer, unassigned) [Compound 182] showed an EC50 of 12000 nM. Work on `COc1nc(N)nc2c1ncn2[C@@H]1O[C@H](COP(=O)(N[C@@H](C)C(=O)OCC(C)C)Oc2ccc(Cl)cc2)[C@@H](O)[C@@]1(C)N=[N+]=[N-]` (single isomer, unassigned) [Compound 296] yielded an EC50 of 100 nM. In the case of `COC(=O)[C@H](C)NP(=O)(OC[C@H]1O[C@@H](n2ccc(=O)[nH]c2=O)[C@](C)(N=[N+]=[N-])[C@@H]1O)Oc1cccc2ccccc12` (single isomer, unassigned) [Compound 218], the EC50 is reported as 4600 nM. `C[C@H](NP(=O)(OC[C@H]1O[C@@H](n2ccc(=O)[nH]c2=O)[C@](C)(N=[N+]=[N-])[C@@H]1O)Oc1ccc(F)cc1)C(=O)OC1CCCCC1` (some centres unmarked) [Compound 90] gave an EC50 of 2100 nM. Compound `CCOc1nc(N)nc2c1ncn2[C@@H]1O[C@H](COP(=O)(N[C@@H](C)C(=O)OC2CCC2)Oc2ccccc2)[C@@H](O)[C@@]1(C)N=[N+]=[N-]` (single isomer, unassigned) [Compound 363] has an EC50 of 200 nM. For `CCOC(=O)[C@H](C)NP(=O)(OC[C@H]1O[C@@H](n2cnc3c(OC)nc(N)nc32)[C@](C)(N=[N+]=[N-])[C@@H]1O)Oc1ccc(Cl)cc1` (single isomer, unassigned) [Compound 290], the EC50 was 800 nM. `CCOc1nc(N)nc2c1ncn2[C@@H]1O[C@H](COP(=O)(N[C@@H](C)C(=O)OC(C)C)Oc2ccccc2)[C@@H](O)[C@@]1(C)N=[N+]=[N-]` (single isomer, unassigned) [Compound 165] was tested, and the EC50 was 6200 nM. Compound `CCOC(=O)[C@H](C)NP(=O)(OC[C@H]1O[C@@H](n2ccc(N)nc2=O)[C@](C)(N=[N+]=[N-])[C@@H]1O)Oc1ccc(Cl)cc1` (single isomer, unassigned) [Compound 190] has an EC50 of 5600 nM. `CC(C)OC(=O)[C@H](C)NP(=O)(OC[C@H]1O[C@@H](n2ccc(N)nc2=O)[C@](C)(N=[N+]=[N-])[C@@H]1O)Oc1ccccc1Cl` (some centres unmarked) [Compound 95] was tested, and the EC50 was 4500 nM. `CCOc1nc(N)nc2c1ncn2[C@@H]1O[C@H](COP(=O)(N[C@@H](C)C(=O)OCc2ccccc2)Oc2ccccc2)[C@@H](O)[C@@]1(C)N=[N+]=[N-]` (single isomer, unassigned) [Compound 350] was tested, and the EC50 was 1000 nM. `CCOc1nc(N)nc2c1ncn2[C@@H]1O[C@H](COP(=O)(N[C@@H](C)C(=O)OC)Oc2ccc(Cl)cc2)[C@@H](O)[C@@]1(C)N=[N+]=[N-]` (single isomer, unassigned) [Compound 311] gave an EC50 of 900 nM. `CCOC(=O)[C@H](C)NP(=O)(OC[C@H]1O[C@@H](n2ccc(=O)[nH]c2=O)[C@](C)(N=[N+]=[N-])[C@@H]1O)Oc1ccccc1` (single isomer, unassigned) [Compound 152] gave an EC50 of 500 nM. In the case of `CCOC(=O)c1ccccc1OP(=O)(N[C@@H](C)C(=O)OC)OC[C@H]1O[C@@H](n2ccc(=O)[nH]c2=O)[C@](C)(N=[N+]=[N-])[C@@H]1O` (single isomer, unassigned) [Compound 225], the EC50 is reported as 2800 nM. In the case of `CC(C)COC(=O)[C@H](C)NP(=O)(OC[C@H]1O[C@@H](n2ccc(=O)[nH]c2=O)[C@](C)(N=[N+]=[N-])[C@@H]1O)Oc1ccccc1` (single isomer, unassigned) [Compound 210], the EC50 is reported as 3300 nM. Work on `CCOc1nc(N)nc2c1ncn2[C@@H]1O[C@H](COP(=O)(N[C@@H](C)C(=O)OC(C)C)Oc2ccccc2)[C@@H](O)[C@@]1(C)N=[N+]=[N-]` (single isomer, unassigned) [Compound 166] yielded an EC50 of 800 nM. Work on `C[C@H](NP(=O)(OC[C@H]1O[C@@H](n2ccc(N)nc2=O)[C@](C)(N=[N+]=[N-])[C@@H]1O)Oc1ccccc1)C(=O)OCc1ccccc1` (single isomer, unassigned) [Compound 192] yielded an EC50 of 19000 nM. For `CCOC(=O)[C@H](C)NP(=O)(OC[C@H]1O[C@@H](n2cnc3c(OC)nc(N)nc32)[C@](C)(N=[N+]=[N-])[C@@H]1O)Oc1ccccc1` (some centres unmarked) [Compound 250], the EC50 was 700 nM. Compound `CCOc1nc(N)nc2c1ncn2[C@@H]1O[C@H](COP(=O)(N[C@@H](C)C(=O)OCC(C)(C)C)Oc2ccccc2)[C@@H](O)[C@@]1(C)N=[N+]=[N-]` (single isomer, unassigned) [Compound 160] has an EC50 of 6800 nM.
